Test results: article PMC12738789, “Synthesis of an enhanced nanobiocatalyst system from Aspergillus niger as single green source” (Scientific Reports, 2025)

System: T1, Aspergillus niger ATCC 16,878 lipase
T1 construct: gene lipA
Assay: spectrophotometric p-nitrophenol release at […] nm, nonlinear Michaelis-Menten fit
Assay type: biochemical
Details: free enzyme; 0.1-1 mM pNPP; standard assay 0.1 M potassium phosphate pH 7.5, 37 °C, 2% Triton X-100

For `CCCCCCCCCCCCCCCC(=O)Oc1ccc([N+](=O)[O-])cc1` [4-nitrophenyl palmitate], the Km was 147 µM.
